PubChem BioAssay (NCI)
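Each compound was tested at five concentrations against cells in 96-well plates for 48 hours. GI50 marks 50% less growth. TGI denotes the concentration required for complete inhibition of growth.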

Legend:
Assay in all cases: NCI-60 cell line screen, 48 h
SK-MEL-5 melanoma = test system: SK-MEL-5 melanoma
HOP-62 NSCLC = test system: HOP-62 NSCLC
KM12 colon = test system: KM12 colon
K-562 leukemia = test system: K-562 leukemia
A549 NSCLC = test system: A549 NSCLC
HT29 colon = test system: HT29 colon
SW-620 colon = test system: SW-620 colon
SF-268 CNS = test system: SF-268 CNS
SNB-19 CNS = test system: SNB-19 CNS
OVCAR-8 ovarian = test system: OVCAR-8 ovarian
IGROV1 ovarian = test system: IGROV1 ovarian
SK-OV-3 ovarian = test system: SK-OV-3 ovarian
TK-10 renal = test system: TK-10 renal

| Compound | TGI (SK-MEL-5 melanoma) [µM] | TGI (HOP-62 NSCLC) [µM] | TGI (KM12 colon) [µM] | TGI (K-562 leukemia) [µM] | TGI (A549 NSCLC) [µM] | TGI (HT29 colon) [µM] | TGI (SW-620 colon) [µM] | TGI (SF-268 CNS) [µM] | TGI (SNB-19 CNS) [µM] | TGI (OVCAR-8 ovarian) [µM] | TGI (IGROV1 ovarian) [µM] | TGI (SK-OV-3 ovarian) [µM] | TGI (TK-10 renal) [µM] | GI50 (SK-MEL-5 melanoma) [µM] | GI50 (HOP-62 NSCLC) [µM] | GI50 (K-562 leukemia) [µM] | GI50 (SW-620 colon) [µM] | GI50 (TK-10 renal) [µM] | GI50 (SK-OV-3 ovarian) [µM] |
| --- | --- | --- | --- | --- | --- | --- | --- | --- | --- | --- | --- | --- | --- | --- | --- | --- | --- | --- | --- |
| NCCCCCC(CCN)SCC1OC(n2cnc3c(N)ncnc32)C(O)C1O (stereo not drawn) | > 1500 | > 1500 | > 1500 | > 1500 | > 1500 | > 1500 | > 1500 | > 1500 | > 1500 | > 1500 | > 1500 | > 1500 |  |  |  |  |  |  |  |
| COC(=O)/C=C1\SC2(OC1=Nc1ccccc1)C1CC3CC(C1)CC2C3 (stereo not drawn) | > 100 | > 100 | > 100 | > 100 | > 100 | > 100 | > 100 |  | > 100 | > 100 | > 100 | > 100 | > 100 |  |  |  |  |  |  |
| Nc1ccccc1N | > 100 | > 100 | > 100 | > 100 | > 100 | > 100 | > 100 | > 100 | > 100 | > 100 | > 100 | > 100 | > 100 |  |  |  |  |  |  |
| CCOC(=O)CC1=N/C(=N/C(=N)N[N+](=O)[O-])SC1 | > 100 | > 100 | > 100 | > 100 | > 100 | > 100 | > 100 | > 100 | > 100 | > 100 | > 100 | > 100 | > 100 |  |  |  |  |  |  |
| O=C(O)c1ccccc1CN1CCCC(C(=O)O)C1 (stereo not drawn) | > 100 | > 100 | > 100 | > 100 | > 100 | > 100 | > 100 | > 100 | > 100 | > 100 | > 100 | > 100 | > 100 |  |  |  |  |  |  |
| CCOc1ccc(/C=C2\N=C(c3ccccc3)OC2=O)cc1 | > 100 | > 100 | > 100 | > 100 | > 100 | > 100 | > 100 | > 100 | > 100 | > 100 | > 100 | > 100 | > 100 |  |  |  |  |  |  |
| N=c1sc2ccccc2n1CCS (tested in a mixture with another compound) | 28 | 39.8 | 35.5 | 44.7 | 37.3 | 37.1 | > 100 | 49.1 | 37.6 | 31.8 | 27.5 | 53.6 | 48.6 |  |  |  |  |  |  |
| COc1cccc2c1C(=O)c1c(O)c3c(c(O)c1C2=O)C[C@@](O)(C(=O)CO)CC3OC1CC(N(C)CCOCC(OC(C)=O)OC(C)=O)C(O)C(C)O1 (stereo partly drawn) | > 0.01 | > 0.01 | > 0.01 | > 0.01 | > 0.01 | > 0.01 | > 0.01 | > 0.01 | > 0.01 | > 0.01 | > 0.01 | > 0.01 | > 0.01 |  |  |  |  |  |  |
| NC(Cc1ccc(CP(=O)(O)O)cc1)C(=O)O (stereo not drawn) | > 100 |  | > 100 | > 100 | > 100 | > 100 | > 100 | > 100 | > 100 | > 100 | > 100 | > 100 | > 100 |  |  |  |  |  |  |
| Cc1cccc2cc(/C=C/C(=O)/C=C/c3ccc(Cl)cc3)c(=O)[nH]c12 | > 100 | > 100 |  | > 100 |  |  | > 100 |  |  |  |  | > 100 | > 100 | > 100 | > 100 | 3.8 | 2.98 | > 100 | > 100 |
| CN1C2CCC1/C(=C/c1cccc3c1OCO3)C(=O)/C2=C\c1cccc2c1OCO2 | > 100 | 41.2 | > 100 |  |  | > 100 | > 100 | > 100 |  | > 100 | > 100 | > 100 | 56.2 |  |  |  |  |  |  |
| CC(=O)CCC#Cc1ccccc1C(=O)C(C)=[N+]=[N-] | 33.1 | > 100 | > 100 | > 100 | > 100 | > 100 | > 100 | > 100 | > 100 | > 100 | > 100 | > 100 | > 100 |  |  |  |  |  |  |
| O=C(O)C(Cc1cc(I)c(O)c(I)c1)C1CCCCC1 (stereo not drawn) | 53.5 | > 100 | > 100 | > 100 | > 100 | 98.3 | > 100 | > 100 | > 100 | > 100 | > 100 |  | 88.7 |  |  |  |  |  |  |
| Fc1ccc(Nc2nc(Cl)c3[nH]cnc3n2)cc1Cl | > 100 | > 100 | > 100 |  | > 100 | > 100 | > 100 | > 100 | > 100 | > 100 | > 100 | > 100 | > 100 |  |  |  |  |  |  |
